Experiment [1] has as its target T1, Adenosine A1 receptor (human) membrane (Homo sapiens, UniProt P30542).
T1 construct: purchased PerkinElmer ES-010-M400UA
T1 sequence (P30542 1-326): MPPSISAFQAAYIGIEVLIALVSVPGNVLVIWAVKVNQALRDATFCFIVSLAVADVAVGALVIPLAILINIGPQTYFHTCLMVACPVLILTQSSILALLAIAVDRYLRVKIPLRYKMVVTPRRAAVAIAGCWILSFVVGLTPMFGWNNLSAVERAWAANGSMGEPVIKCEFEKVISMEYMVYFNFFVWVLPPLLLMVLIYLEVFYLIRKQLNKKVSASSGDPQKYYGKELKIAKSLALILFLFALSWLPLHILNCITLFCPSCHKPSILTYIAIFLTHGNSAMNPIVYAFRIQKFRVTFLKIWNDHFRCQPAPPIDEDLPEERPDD
Description: Determination of competitive inhibition constant (Ki) for adenosine A1 receptor, [3H]-DPCPX radioligand. It counts as binding. The note with it: 1.0 nM [3H]-DPCPX. The protocol:
(§1) Test Example 1: Determination of Competitive Inhibition Constant (Ki) for Adenosine A1 and A2a Receptors
[^3H]-DPCPX (PerkinElmer, NET974250UC),
Adenosine A1 receptor (human) membrane (PerkinElmer, ES-010-M400UA),
assay buffer for A1 (25 mM HEPES, 5 mM MgCl2, 1 mM CaCl2, 100 mM NaCl, pH7.4), used to dilute adenosine A1 receptor (human) membrane and [^3H]-DPCPX;
wash buffer for A1 (25 mM HEPES, 5 mM MgCl2, 1 mM CaCl2, 100 mM NaCl, pH7.4);
(§2) Adenosine A1 receptor membrane was diluted to 0.025 μg/μl with assay buffer for A1, and Adenosine A2a receptor membrane was diluted to 0.05 μg/μl with assay buffer for A2a, so as to obtain Adenosine A1 receptor membrane dilution and Adenosine A2a receptor membrane dilution.
(§3) The compound to be tested and CGS-15943 were diluted with DMSO, and 1 W of the compound to be tested, high value control (0.5% DMSO), low value control (1000 nM CGS-15943) were added to a 96-well plate, and 100 W of Adenosine A1 receptor membrane dilution (containing 2.5 μg of membrane) was added to each well of the 96-well plate to obtain A1 detection plate; following the same steps, 100 W of Adenosine A2a receptor membrane dilution (containing 5.0 μg membrane) was added to each well of the 96-well plate to obtain A2a detection plate.
(§4) To the A1 detection plate, 100 μl of radioisotope-labeled ligand [^3H]-DPCPX (diluted with assay buffer for A1, working concentration of which was 1.0 nM) was added; and to the A2a detection plate, 100 μl of radioisotope-labeled ligand [^3H]-CGS-21680 (diluted with assay buffer for A2a, working concentration of which was 6.0 nM) was added. The A1 and A2a detection plates were sealed with tape, and incubated at room temperature for 1 h and 2 h, respectively.
(§5) Unifilter-96 GF/C filter plates were prepared, 50 μl of 0.3% PEI was added to each well of the Unifilter-96 GF/C filter plates, and the resulting filter plates were incubated at room temperature for not less than 0.5 h.
(§6) After the incubation was completed, the reaction solution was transferred from the A1 detection plate and the A2a detection plate to two Unifilter-96 GF/C filter plates, and washed with pre-cooled wash buffer for A1 and wash buffer for A2a, and then the filter plates were dried, sealed at bottom, then 50 W of Microscint 20 fluid scintillation cocktail was added, and then the filter plates were sealed at top, and counted by MicroBeta2 Reader.
(§7) Inhibition rate %=100−(signal value of test well−signal average value of low value control)/(signal average value of high value control−signal average value of low value control)*100.
(§8) EXCEL XLfit was used to fit IC50.
(§9) The calculation formula for competitive inhibition constant (Ki) was: Ki=IC50/(1+concentration of isotope-labeled ligand/Kd), wherein Kd was the dissociation constant of the isotope-labeled ligand.

Experiment [2] has as its target T2, Adenosine A2a receptor (human) membrane (Homo sapiens, UniProt P29274).
T2 construct: purchased PerkinElmer RBHA2AM400UA
Description: Determination of competitive inhibition constant (Ki) for adenosine A2a receptor, [3H]-CGS-21680 radioligand. It counts as binding. The note with it: for Ki(A1)/Ki(A2a): selectivity ratio A1 over A2a. The method, then:
as §1
Adenosine A2a receptor (human) membrane (PerkinElmer, RBHA2AM400UA),
assay buffer for A2a (50 mM Tris-HCl, 10 mM MgCl2, 1 mM EDTA, pH7.4), used to dilute adenosine A2a receptor (human) membrane (human origin) and [^3H]-CGS-21680; and
wash buffer for A2a (50 mM Tris-HCl, 154 mM NaCl, pH7.4).
as §2, §3, §4, §5, §6, §7, §8, §9

Where [3] appears, read: human A2a receptor membrane, 6.0 nM [3H]-CGS-21680, read-out: Ki(A2a).

pKi: −log10 of the molar value. Read-outs that look alike come from different tables or passages of the source. Some results are limits rather than exact numbers.

T2 sequence (P29274 whole entry): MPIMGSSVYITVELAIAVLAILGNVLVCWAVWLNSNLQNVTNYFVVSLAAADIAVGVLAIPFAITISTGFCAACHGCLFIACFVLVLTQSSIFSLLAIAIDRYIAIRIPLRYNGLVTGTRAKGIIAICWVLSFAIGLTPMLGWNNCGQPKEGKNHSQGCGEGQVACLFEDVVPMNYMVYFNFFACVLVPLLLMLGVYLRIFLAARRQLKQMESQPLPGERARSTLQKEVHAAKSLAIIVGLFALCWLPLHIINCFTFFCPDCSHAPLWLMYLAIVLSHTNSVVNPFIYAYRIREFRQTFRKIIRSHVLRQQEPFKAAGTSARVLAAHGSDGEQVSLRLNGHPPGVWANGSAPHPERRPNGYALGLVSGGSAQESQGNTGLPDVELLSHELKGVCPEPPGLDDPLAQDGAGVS

As usually defined, the pKi is the negative decadic logarithm of the Ki, by convention in mol/L. As to `Cc1ncnc2ccc(-c3cnc(NC(=O)N4CCN(C)CC4)nc3-c3ccc(F)cc3)cc12` [Compound 30, N-(4-(4-fluorophenyl)-5-(4-methylquinazolin-6-yl)pyrimidin-2-yl)-4-methylpiperazine-1-carboxamide], the negative logarithm of the Ki (pKi) was 5.80 in experiment [1] and 7.67 in experiment [2] (setting [3]). The “Ki(A1)/Ki(A2a)” value in experiment [2] came out at 75.0.
For `Cc1ncnc2ccc(-c3ccc(N)nc3-c3ccc(F)cc3)cc12` [Compound 1, 6-(4-fluorophenyl)-5-(4-methylquinazolin-6-yl)pyridin-2-amine] the same measures were 5.49, 8.02 and 339.0.
For `CNC(=O)Nc1ncc(-c2ccc3ncnc(C)c3c2)c(-c2ccc(F)cc2)n1` [Compound 5, 1-(4-(4-fluorophenyl)-5-(4-methylquinazolin-6-yl)pyrimidin-2-yl)-3-methylurea] the same measures were below 5.10, 7.81 and above 507.5.
For `Cc1cc(-c2cnc(NC(=O)N3CCC(C#N)CC3)nc2-c2ccc(F)cc2)cc(Cl)n1` [Compound 18, N-(5-(2-chloro-6-methylpyridin-4-yl)-4-(4-fluorophenyl)pyrimidin-2-yl)-4-cyanopiperidine-1-carboxamide] the same measures were 5.51, 7.72 and 162.5.
Take `Cc1ncnc2ccc(-c3nnc(NC(=O)N(C)Cc4ccccn4)nc3-c3ccc(F)cc3)cc12` [Compound 24, 3-(5-(4-fluorophenyl)-6-(4-methylquinazolin-6-yl)-1,2,4-triazolin-3-yl)-1-methyl-1-(pyridine-2-methyl)urea]: the figures for the pKi in experiment [1] and in experiment [2] were 5.43 and 7.57, respectively. The “Ki(A1)/Ki(A2a)” value in experiment [2] was determined as 139.1.
Consider `Cc1ncnc2ccc(-c3cnc(NC(=O)N4C[C@@H](C)O[C@@H](C)C4)nc3-c3ccc(F)cc3)cc12` [Compound 39, (2R,6S)-N-(4-(4-fluorophenyl)-5-(4-methylquinazolin-6-yl)pyrimidin-2-yl)-2,6-dimethylmorpholine-4-carboxamide], for which the pKi in experiment [1] was 6.09; in experiment [2] (setting [3]), 7.96. Moreover, the “Ki(A1)/Ki(A2a)” value in experiment [2] came to 74.0.
For `Cc1cc(-c2cnc(NC(=O)N3CCCCC3)nc2-c2ccc(F)cc2)cc(Cl)n1` [Compound 35, N-(5-(2-chloro-6-methylpyridin-4-yl)-4-(4-fluorophenyl)pyrimidin-2-yl) piperidine-1-carboxamide] the same measures were 5.73, 7.83 and 126.9.
For `Cc1ncnc2ccc(-c3cnc(NC(=O)N4CCO[C@H](C)C4)nc3-c3ccc(F)cc3)cc12` [Compound 40, (R)-N-(4-(4-fluorophenyl)-5-(4-methylquinazolin-6-yl)pyrimidin-2-yl)-2-methylmorpholine-4-carboxamide] the same measures were 6.39, 8.27 and 76.2.
On the same counts, the results for `Cc1cc(-c2cnc(NC(=O)N(C)Cc3ccccn3)nc2-c2ccc(F)cc2)cc(Cl)n1` [Compound 14, 3-(5-(2-chloro-6-methylpyridin-4-yl)-4-(4-fluorophenyl)pyrimidin-2-yl)-1-methyl-1-(pyridin-2-ylmethyl)urea] are 5.27, 8.09 and 656.1.
For `Cc1ncnc2ccc(-c3c(Cl)cc(NC(=O)N4CCOCC4)nc3-c3ccc(F)cc3)cc12` [Compound 42, N-(4-chloro-6-(4-fluorophenyl)-5-(4-methylquinazolin-6-yl)pyridin-2-yl) morpholine-4-carboxamide], the pKi in experiment [1] is 6.48; in experiment [2] (setting [3]) it was 8.64. Also, the “Ki(A1)/Ki(A2a)” value in experiment [2] is reported as 144.6.
For `COC1CCN(C(=O)Nc2ncc(-c3ccc4ncnc(C)c4c3)c(-c3ccc(F)cc3)n2)CC1` [Compound 13, N-(4-(4-fluorophenyl)-5-(4-methylquinazolin-6-yl)pyrimidin-2-yl)-4-methoxypiperidine-1-carboxamide] the same measures were 5.88, 8.01 and 134.5.
Take `Cc1ccc(-c2nc(NC(=O)N(C)Cc3ccccn3)nnc2-c2ccc3ncnc(C)c3c2)o1` [Compound 25, 1-methyl-3-(5-(5-methylfuran-2-yl)-6-(4-methylquinazolin-6-yl)-1,2,4-triazin-3-yl)-1-(pyridin-2-yl-methyl)urea]: the pKi in experiment [1] is 6.75. Besides, in experiment [2], the pKi is 8.41 and the “Ki(A1)/Ki(A2a)” value is 45.7.
Take `Cc1ncnc2ccc(-c3cnc(NC(=O)N4CCO[C@@H](C)C4)nc3-c3ccc(F)cc3)cc12` [Compound 34, (S)-N-(4-(4-fluorophenyl)-5-(4-methylquinazolin-6-yl)pyrimidin-2-yl)-2-methylmorpholine-4-carboxamide]: the pKi was 6.27 in experiment [1] and 7.90 in experiment [2] (setting [3]). In addition, in experiment [2], the “Ki(A1)/Ki(A2a)” value is 42.7.
Regarding `Cc1cc(Cl)cc(-c2cnc(NC(=O)N3CCC(N4CCCCC4)CC3)nc2-c2ccc(F)cc2)c1` [Compound 21, N-(5-(3-chloro-5-methylphenyl)-4-(4-fluorophenyl)pyrimidin-2-yl)-[1,4′-dipiperidine]-1′-carboxamide], the pKi is 5.33 in experiment [1] and 8.14 in experiment [2] (setting [3]). Besides, the “Ki(A1)/Ki(A2a)” value in experiment [2] came out at 639.1.
For `Cc1cc(-c2cnc(NC(=O)N3C[C@@H](C)O[C@@H](C)C3)nc2-c2ccc(F)cc2)cc(Cl)n1` [Compound 37, (2R,6S)-N-(5-(2-chloro-6-methylpyridin-4-yl)-4-(4-fluorophenyl)pyrimidin-2-yl)-2,6-dimethylmorpholine-4-carboxamide] the same measures were 5.39, 7.63 and 173.7.
In the case of `Cc1ncnc2ccc(-c3ccc(NC(=O)N(C)Cc4ccccn4)nc3-c3ccc(F)cc3)cc12` [Compound 29, 3-(6-(4-fluorophenyl)-5-(4-methylquinazolin-6-yl)pyridin-2-yl)-1-methyl-1-(pyridine-2-methyl)urea], the pKi is 5.30 in experiment [1] and 7.93 in experiment [2]. Moreover, the “Ki(A1)/Ki(A2a)” value in experiment [2] worked out at 425.9.

The values above are taken from patent US20210395226A1, “SUBSTITUTED ARYL COMPOUND AND PREPARATION METHOD THEREFOR AND USE THEREOF” (SICHUAN KELUN-BIOTECH BIOPHARMACEUTICAL CO., LTD., priority 2018, published 2021).
